The results in this text go back to ChEMBL document CHEMBL5113484, “Synthesis and biological evaluation of novel pentanediamide derivatives as S-adenosyl-l-homocysteine hydrolase inhibitors” (Bioorg Med Chem Lett, 2022).

The structures appear in SMILES notation.

For one data set, the system named is A549. Description: Cytotoxicity against human A549 cells assessed as cell growth inhibition. It counts as functional, cell-based.
The test system of the next data set is MCF7. Put plainly: Cytotoxicity against human MCF7 cells assessed as cell growth inhibition. The data set is classed as functional, cell-based.
A further data set has as its system MGC-803. Description: Cytotoxicity against human MGC-803 cells assessed as cell growth inhibition. The data set is classed as functional, cell-based.
Another data set has as its system HeLa. Put plainly: Cytotoxicity against human HeLa cells assessed as cell growth inhibition. It counts as functional, cell-based.
For another data set, the system named is L02. Put plainly: Cytotoxicity against human L02 cells assessed as cell growth inhibition. The data set is classed as functional, cell-based.
The nature of data set [1]: Selectivity index, ratio of CC50 for cytotoxicity against African green monkey Vero cells to EC50 for antiviral activity against Vesicular stomatitis virus. The data set is classed as toxicity, cell-based. The note with it: read-out: Ratio CC50/EC50.
Data set [2] can be described thus: Cytotoxicity against African green monkey Vero cells assessed as cell growth inhibition. It counts as toxicity, cell-based. The note with it: chlorocebus sabaeus.
Data set [3] relates to Respiratory syncytial virus. Put plainly: Antiviral activity against Respiratory syncytial virus assessed as viral growth inhibition. The data set is classed as functional, organism-based. The settings on record: human respiratory syncytial virus.
Data set [4] concerns Vesicular stomatitis virus. Description: Antiviral activity against Vesicular stomatitis virus assessed as viral growth inhibition. It counts as functional, organism-based.
In the next data set the target is Adenosylhomocysteinase (Homo sapiens, UniProt P23526). Description: Inhibition of SAH hydrolase (unknown origin).
Chain of Adenosylhomocysteinase (P23526 whole entry): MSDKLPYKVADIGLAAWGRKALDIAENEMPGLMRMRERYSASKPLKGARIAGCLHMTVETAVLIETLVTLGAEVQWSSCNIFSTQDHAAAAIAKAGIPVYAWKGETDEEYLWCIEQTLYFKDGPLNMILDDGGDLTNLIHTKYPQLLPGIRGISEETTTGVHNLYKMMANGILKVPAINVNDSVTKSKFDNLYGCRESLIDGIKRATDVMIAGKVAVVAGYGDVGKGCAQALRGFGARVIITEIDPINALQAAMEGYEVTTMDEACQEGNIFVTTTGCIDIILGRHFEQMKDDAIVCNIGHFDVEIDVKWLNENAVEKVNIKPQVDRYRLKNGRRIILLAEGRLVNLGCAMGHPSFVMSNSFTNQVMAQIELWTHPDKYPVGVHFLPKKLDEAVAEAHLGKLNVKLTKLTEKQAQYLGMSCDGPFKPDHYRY
Data set [5] in a line: Selectivity index, ratio of CC50 for cytotoxicity against African green monkey Vero cells to EC50 for antiviral activity against Respiratory syncytial virus. The note with it: read-out: Ratio CC50/EC50. It counts as toxicity, cell-based.

As for `CCN(CC)CCNC(=O)CC(CC(=O)N(C)C1Cc2ccccc2C1)c1ccccc1` (stereo not given), the IC50 in the data set with A549, with MCF7, in the data set with MGC-803, in the data set with HeLa and in the data set on L02 was greater than 100 µM throughout.

As to `CNCCNC(=O)CC(CC(=O)NC1Cc2ccccc2C1)c1ccc(Cl)cc1` (stereo not given), the IC50 in the data set on A549, in the data set on MCF7, with MGC-803, with HeLa and in the data set on L02 was greater than 100 µM each time.

For `O=C(CC(CC(=O)NC1Cc2ccccc2C1)c1ccccc1)NCCN1CCCCC1` (stereo not given), the half-inhibitory concentration (IC50) in the data set on A549, in the data set on MCF7, in the data set with MGC-803, in the data set on HeLa and in the data set with L02 was greater than 100 µM in each case.

As for `CN(C(=O)CC(CC(=O)NCCN1CCCC1)c1ccccc1)C1Cc2ccccc2C1` (stereo not given), the IC50 in the data set with A549, with MCF7, in the data set with MGC-803, with HeLa and in the data set with L02 was greater than 100 µM throughout.

For `Cc1ccc(C(CC(=O)NCCN2CCCCC2)CC(=O)NC2Cc3ccccc3C2)cc1` (stereo not given), the concentration for half-maximal inhibition (IC50) with A549, with MCF7, in the data set with MGC-803, in the data set on HeLa and in the data set with L02 was greater than 100 µM throughout.

As for `CCN(C(=O)CC(CC(=O)NCCN1CCCCC1)c1ccccc1)C1Cc2ccccc2C1` (stereo not given), the IC50 in the data set on A549 is 84.5 µM; in the data set on MCF7 it was greater than 100 µM; in the data set with MGC-803 it was greater than 100 µM; with HeLa it was greater than 100 µM; with L02 it was greater than 100 µM.

Turning to `CCN(CC)CCNC(=O)CC(CC(=O)N(CC)C1Cc2ccccc2C1)c1ccc(Cl)cc1` (stereo not given), the selectivity ratio turned out to be 2.36 in data set [1] and 1.01 in [5]. The IC50 in the data set with A549 is 18.4 µM; in the data set with MCF7, 23 µM; with MGC-803, 44.9 µM; in the data set on HeLa, 24.3 µM; in the data set with L02 it was 78.4 µM; on Adenosylhomocysteinase, 3.72 µM. Further, in data set [2], the 50% cytotoxic concentration (CC50) turned out to be 91.8 µM. Moreover, the values for the concentration for a half-maximal effect (EC50) in data set [3] and in data set [4] were 91.1 µM and 38.9 µM, respectively.

As for `O=c1[nH]cc(F)c(=O)[nH]1` [FLUOROURACIL], the IC50 in the data set on MCF7 came out at 48.5 µM; with MGC-803, 38.5 µM; with L02 it was 46.5 µM.

Regarding `CCN(CC)CCNC(=O)CC(CC(=O)N(C)C1Cc2ccccc2C1)c1ccc(Cl)cc1` (stereo not given), the IC50 with A549 stood at 21.4 µM; in the data set with MCF7, 28.8 µM; in the data set with MGC-803, 81.2 µM; with HeLa, 48.1 µM; in the data set on L02 it was 56.5 µM.

Regarding `CCNCCNC(=O)CC(CC(=O)NC1Cc2ccccc2C1)c1ccccc1` (stereo not given), the half-inhibitory concentration (IC50) in the data set with A549, in the data set on MCF7, in the data set with MGC-803, in the data set with HeLa and in the data set on L02 was greater than 100 µM each time.

With `O=C(CC(CC(=O)NC1Cc2ccccc2C1)c1ccc(Cl)cc1)NCCN1CCCC1` (stereo not given), the IC50 with A549 is 50.9 µM; in the data set on MCF7, greater than 100 µM; in the data set with MGC-803 it was greater than 100 µM; in the data set on HeLa, 77.3 µM; in the data set with L02, 89.4 µM.

In the case of `CCN(CC)CCNC(=O)CC(CC(=O)NC1Cc2ccccc2C1)c1ccc(Cl)cc1` (stereo not given), the half-maximal inhibitory concentration (IC50) in the data set on A549 was 48.6 µM; with MCF7 it was 75 µM; in the data set with MGC-803, greater than 100 µM; in the data set with HeLa, 50.5 µM; with L02 it was 76.7 µM; against Adenosylhomocysteinase, 3.68 µM.

As to `CN(C(=O)CC(CC(=O)NCCN1CCCC1)c1ccc(Cl)cc1)C1Cc2ccccc2C1` (stereo not given), the concentration for half-maximal inhibition (IC50) came out at 56 µM with A549; 76.7 µM in the data set with MCF7; 83.8 µM with MGC-803; 55.4 µM with HeLa; 81.5 µM in the data set on L02.

Regarding `CCNCCNC(=O)CC(CC(=O)NC1Cc2ccccc2C1)c1ccc(Cl)cc1` (stereo not given), the IC50 is 52 µM with A549; greater than 100 µM in the data set on MCF7; greater than 100 µM in the data set with MGC-803; 68.4 µM in the data set with HeLa; 83.7 µM in the data set with L02.

In the case of `CCNCCNC(=O)CC(CC(=O)N(CC)C1Cc2ccccc2C1)c1ccccc1` (stereo not given), the IC50 in the data set with A549 was greater than 100 µM; in the data set with MCF7 it was greater than 100 µM; with MGC-803 it was greater than 100 µM; in the data set on HeLa it was greater than 100 µM; in the data set with L02, greater than 100 µM; at Adenosylhomocysteinase it was 3.48 µM.

For `O=C(CC(CC(=O)NC1Cc2ccccc2C1)c1ccccc1)NCCN1CCCC1` (stereo not given), the half-maximal inhibitory concentration (IC50) in the data set on A549, with MCF7, in the data set with MGC-803, in the data set on HeLa and in the data set on L02 was greater than 100 µM each time.

Take `CCN(C(=O)CC(CC(=O)NCCN1CCCC1)c1ccccc1)C1Cc2ccccc2C1` (stereo not given): the IC50 in the data set with A549, in the data set with MCF7, in the data set on MGC-803, in the data set with HeLa and with L02 was greater than 100 µM throughout.

As to `Nc1nccc2c1ncn2[C@@H]1O[C@H](CO)[C@@H](O)[C@H]1O`, the IC50 with A549 was found to be 57.4 µM; in the data set on MCF7, 40.3 µM; in the data set with MGC-803, 41.1 µM; with L02 it was 94.4 µM; at Adenosylhomocysteinase it was 5.39 µM.

Regarding `CCN(C(=O)CC(CC(=O)NCCN1CCCCC1)c1ccc(Cl)cc1)C1Cc2ccccc2C1` (stereo not given), the IC50 with A549 stood at 13.2 µM; in the data set with MCF7, 16.5 µM; in the data set with MGC-803, 21.2 µM; in the data set on HeLa, 20.4 µM; in the data set on L02, 84.2 µM; at Adenosylhomocysteinase, 3.58 µM. For the same molecule, the CC50 in [2] came out at 187 µM. For the same molecule, the EC50 in [3] is 27.4 µM; in data set [4] it was greater than 100 µM. Further, the selectivity ratio in data set [5] was 6.84.

As for `CCNCCNC(=O)CC(CC(=O)N(CC)C1Cc2ccccc2C1)c1ccc(Cl)cc1` (stereo not given), the IC50 in the data set on A549 was 19.4 µM; in the data set on MCF7, 14.4 µM; in the data set on MGC-803, 43.8 µM; in the data set on HeLa, 40.5 µM; in the data set with L02 it was 66.2 µM; at Adenosylhomocysteinase, 3.78 µM. Besides, the CC50 in [2] was found to be 144 µM. Further, the EC50 in [3] and in data set [4] was greater than 100 µM throughout.

In the case of `O=C(CC(CC(=O)NC1Cc2ccccc2C1)c1ccc(Cl)cc1)NCCN1CCCCC1` (stereo not given), the IC50 worked out at 28 µM with A549; 35.5 µM with MCF7; 89.1 µM in the data set on MGC-803; 86.2 µM in the data set with HeLa; 70.4 µM with L02.

On to `CCN(CC)CCNC(=O)CC(CC(=O)NC1Cc2ccccc2C1)c1ccccc1` (stereo not given), for which the half-inhibitory concentration (IC50) is 82.4 µM in the data set on A549; greater than 100 µM in the data set with MCF7; greater than 100 µM in the data set with MGC-803; greater than 100 µM with HeLa; greater than 100 µM in the data set on L02.

On to `CCN(C(=O)CC(CC(=O)NCCN1CCCC1)c1ccc(Cl)cc1)C1Cc2ccccc2C1` (stereo not given), for which the 50% inhibitory concentration (IC50) was 22.6 µM in the data set on A549; 20.4 µM in the data set on MCF7; 55.5 µM with MGC-803; 36.4 µM in the data set with HeLa; 54.2 µM in the data set on L02.

Usually IC50 stands for the concentration at which inhibition is half-maximal. A word on the CC50: it is the concentration that lowers cell viability or growth by half. Broadly, the EC50 is the midpoint of the concentration-response curve.
